Patent US8742117B2, “Oxime derivatives” (Cadila Healthcare Limited, priority 2008, dated 2014)

Key:
human GPR 119 receptor = molecular target: T1, human GPR 119 receptor (Homo sapiens, UniProt Q8TDV5); assay: cAMP assay in stable cell line expressing recombinant human GPR 119 receptor; format: cell-based; settings: intracellular cAMP, recombinant human GPR 119 cell line
T1 construct: expressed in transfected cells
T1 sequence (Q8TDV5 1-335): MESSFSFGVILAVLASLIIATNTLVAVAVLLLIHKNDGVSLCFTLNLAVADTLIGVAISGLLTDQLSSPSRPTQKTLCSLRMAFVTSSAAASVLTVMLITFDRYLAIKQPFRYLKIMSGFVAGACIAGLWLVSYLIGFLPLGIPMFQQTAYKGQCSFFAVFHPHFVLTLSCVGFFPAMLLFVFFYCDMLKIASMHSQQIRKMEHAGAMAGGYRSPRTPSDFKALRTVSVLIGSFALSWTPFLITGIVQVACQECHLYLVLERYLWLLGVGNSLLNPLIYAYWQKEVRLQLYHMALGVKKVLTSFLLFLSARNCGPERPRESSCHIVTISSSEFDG
Source text: A stable cell line expressing recombinant human GPR 119 receptor was established and used to investigate the efficacy of the compounds of the invention based on the intracellular levels of cyclic AMP (cAMP) using commercially available cAMP kits. Compounds of the invention produced a concentration dependent increase in cAMP level and EC50 values of representative compounds were provided in table 1 and table 2 respectively.

Sprague Dawley rats = assay: Feed intake in Sprague Dawley rats; format: in vivo, rat; settings: 25 mg/kg i.p., cumulative feed intake vs vehicle control
Source text: In Vivo Efficacy Studies: Feed Intake in Sprague Dawley Rats:
Sprague Dawley rats of 6-8 week age were be used for this experiment they were be kept for acclimatization in reversed light/dark cycle for 15 days. Animals will have free access to a standard chow diet and water during acclimatization period. After 15 days reversed light/dark cycle acclimatization animals were trained for fasting induced feed intake for 5 days till they show consistent feed intake. Grouping was done based on the monitored feed intake the training days. On treatment day each group of animals were dosed with test compound or vehicle by appropriate routes of administration (orally or intraperitoneally). Exactly 30 min. after treatment, measured amount of standard chow diet was provided and recorded as 0-min feed offered. Then subsequently 2, 4, 6 and 24 hour after 0-min, feed intake was measured and the cumulative feed intakes were calculated. The change in cumulative feed intake as compare to vehicle treated control at each time point was calculated for test compound and results were provided in table 2

SMILES | % activity at 1 μM (human GPR 119 receptor) [%] | further results
CC(=NOc1ncnc(N2CCC(c3nc(C(C)C)no3)CC2)c1[N+](=O)[O-])c1cc2ccccc2o1 [Example 1, 1-(benzofuran-2-yl)ethanone O-6-(4-(3-isopropyl-1,2,4-oxadiazol-5-yl)piperidin-1-yl)-5-nitropyrimidin-4-yl oxime] | 62.46 | EC50 (human GPR 119 receptor): 802 nM
CC(=NOc1ncnc(N2CCC(c3nc(C(C)C)no3)CC2)c1[N+](=O)[O-])c1ccc(C)cc1 [Example 2, 1-p-tolylethanone O-6-(4-(3-isopropyl-1,2,4-oxadiazol-5-yl)piperidin-1-yl)-5-nitropyrimidin-4-yl oxime] | 37.75 | 
CC(=NOc1ncnc(N2CCC(c3nc(C(C)C)no3)CC2)c1C)c1ccc(S(C)(=O)=O)cc1 [Example 3, 1-(4-(methylsulfonyl)phenyl)ethanone O-6-(4-(3-isopropyl-1,2,4-oxadiazol-5-yl)piperidin-1-yl)-5-methylpyrimidin-4-yl oxime] | 73.40 | 
CC(=NOc1ncnc(N2CCC(c3nc(C(C)C)no3)CC2)c1[N+](=O)[O-])c1ccc2c(c1)OCO2 [Example 4, 1-(benzo[d][1,3]dioxol-5-yl)ethanone O-6-(4-(3-isopropyl-1,2,4-oxadiazol-5-yl)piperidin-1-yl)-5-nitropyrimidin-4-yl oxime] | 47.28 | % reduction in food in take 2 hour (Sprague Dawley rats): 45.3%; % reduction in food in take 4 hour (Sprague Dawley rats): 29%; % reduction in food in take 6 hour (Sprague Dawley rats): 14.1%; % reduction in food in take 24 hour (Sprague Dawley rats): 0%
CC(=NOc1ncnc(N2CCC(c3nc(C(C)C)no3)CC2)c1C)c1ccc2c(c1)OCO2 [Example 5, 1-(benzo[d][1,3]dioxol-5-yl)ethanone O-6-(4-(3-isopropyl-1,2,4-oxadiazol-5-yl)piperidin-1-yl)-5-methylpyrimidin-4-yl oxime] | 58.37 | % reduction in food in take 2 hour (Sprague Dawley rats): 39%; % reduction in food in take 4 hour (Sprague Dawley rats): 40%; % reduction in food in take 6 hour (Sprague Dawley rats): 31%; % reduction in food in take 24 hour (Sprague Dawley rats): 8.2%
COc1ccc(C(C)=NOc2ncnc(N3CCC(c4nc(C(C)C)no4)CC3)c2[N+](=O)[O-])cc1 [Example 7, 1-(4-methoxyphenyl)ethanone O-6-(4-(3-isopropyl-1,2,4-oxadiazol-5-yl)piperidin-1-yl)-5-nitropyrimidin-4-yl oxime] | 88.99 | % reduction in food in take 2 hour (Sprague Dawley rats): 53.5%; % reduction in food in take 4 hour (Sprague Dawley rats): 42%; % reduction in food in take 6 hour (Sprague Dawley rats): 36%; % reduction in food in take 24 hour (Sprague Dawley rats): 12.9%
CC(=NOc1ncnc(N2CCC(c3nc(C(C)C)no3)CC2)c1C)c1ccc(F)cc1 [Example 8, 1-(4-fluorophenyl)ethanone O-6-(4-(3-isopropyl-1,2,4-oxadiazol-5-yl)piperidin-1-yl)-5-methylpyrimidin-4-yl oxime] | 64.11 | % reduction in food in take 2 hour (Sprague Dawley rats): 32%; % reduction in food in take 4 hour (Sprague Dawley rats): 17%; % reduction in food in take 6 hour (Sprague Dawley rats): 12%; % reduction in food in take 24 hour (Sprague Dawley rats): 4%
CC(=NOc1ncnc(N2CCC(c3nc(C(C)C)no3)CC2)c1[N+](=O)[O-])c1ccc(F)cc1 [Example 9, 1-(4-fluorophenyl)ethanone O-6-(4-(3-isopropyl-1,2,4-oxadiazol-5-yl)piperidin-1-yl)-5-nitropyrimidin-4-yl oxime] | 104.77 | EC50 (human GPR 119 receptor): 746 nM; % reduction in food in take 2 hour (Sprague Dawley rats): 41%; % reduction in food in take 4 hour (Sprague Dawley rats): 31%; % reduction in food in take 6 hour (Sprague Dawley rats): 23%; % reduction in food in take 24 hour (Sprague Dawley rats): 12%
CC(=NOc1ncnc(N2CCC(c3nc(C(C)C)no3)CC2)c1C)c1cccnc1 [Example 12, 1-(pyridin-3-yl)ethanone O-6-(4-(3-isopropyl-1,2,4-oxadiazol-5-yl)piperidin-1-yl)-5-methylpyrimidin-4-yl oxime] | 20.32 | 
CC(=NOc1ncnc(N2CCC(c3nc(C(C)C)no3)CC2)c1[N+](=O)[O-])c1ccc(OC(F)(F)F)cc1 [Example 13, 1-(4-(trifluoromethoxy)phenyl)ethanone O-6-(4-(3-isopropyl-1,2,4-oxadiazol-5-yl)piperidin-1-yl)-5-nitropyrimidin-4-yl oxime] | 93.76 | EC50 (human GPR 119 receptor): 242 nM
CC(=NOc1ncnc(N2CCC(c3nc(C(C)C)no3)CC2)c1C)c1ccc2c(c1)CCCC2 [Example 17, 1-(5,6,7,8-tetrahydronaphthalen-2-yl)ethanone O-6-(4-(3-isopropyl-1,2,4-oxadiazol-5-yl)piperidin-1-yl)-5-methylpyrimidin-4-yl oxime] | 29.24 | 
CC(=NOc1ncnc(N2CCC(c3nc(C(C)C)no3)CC2)c1[N+](=O)[O-])c1ccc2c(c1)CCCC2 [Example 18, 1-(5,6,7,8-tetrahydronaphthalen-2-yl)ethanone O-6-(4-(3-isopropyl-1,2,4-oxadiazol-5-yl)piperidin-1-yl)-5-nitropyrimidin-4-yl oxime] | 31.37 | 
CC(=NOc1ncnc(N2CCC(c3nc(C(C)C)no3)CC2)c1C)c1cc2ccccc2o1 [Example 19, 1-(benzofuran-2-yl)ethanone O-6-(4-(3-isopropyl-1,2,4-oxadiazol-5-yl)piperidin-1-yl)-5-methylpyrimidin-4-yl oxime] | 40.68 | 
Cc1c(ON=C(c2ccccc2)c2ccccc2)ncnc1N1CCC(c2nc(C(C)C)no2)CC1 [Example 20, Benzophenone O-6-(4-(3-isopropyl-1,2,4-oxadiazol-5-yl)piperidin-1-yl)-5-methylpyrimidin-4-yl oxime] | 24.55 | 
CC(C)c1noc(C2CCN(c3ncnc(ON=C(c4ccccc4)c4ccccc4)c3[N+](=O)[O-])CC2)n1 [Example 21, Benzophenone O-6-(4-(3-isopropyl-1,2,4-oxadiazol-5-yl)piperidin-1-yl)-5-nitropyrimidin-4-yl oxime] | 19.43 | 
CC(=NOc1ncnc(N2CCC(c3nc(C(C)C)no3)CC2)c1C)c1ccc(-c2ccccc2)cc1 [Example 24, 1-(biphenyl-4-yl)ethanone O-6-(4-(3-isopropyl-1,2,4-oxadiazol-5-yl)piperidin-1-yl)-5-methylpyrimidin-4-yl oxime] | 8.7 | 
CC(=NOc1ncnc(N2CCC(c3nc(C(C)C)no3)CC2)c1[N+](=O)[O-])c1ccc(-c2ccccc2)cc1 [Example 25, 1-(biphenyl-4-yl)ethanone O-6-(4-(3-isopropyl-1,2,4-oxadiazol-5-yl)piperidin-1-yl)-5-nitropyrimidin-4-yl oxime] | 32.0 | 
CCCCC(=NOc1ncnc(N2CCC(c3nc(C(C)C)no3)CC2)c1[N+](=O)[O-])c1ccccc1 [Example 26, 1-phenylpentan-1-one O-6-(4-(3-isopropyl-1,2,4-oxadiazol-5-yl)piperidin-1-yl)-5-nitropyrimidin-4-yloxime] | 10.2 | 
CC(=NOc1ncnc(N2CCC(c3nc(C(C)C)no3)CC2)c1[N+](=O)[O-])c1cccs1 [Example 28, 1-(thiophen-2-yl)ethanone O-6-(4-(3-isopropyl-1,2,4-oxadiazol-5-yl)piperidin-1-yl)-5-nitropyrimidin-4-yl oxime] | 33.4 | 
Cc1c(ON=C(c2ccc(F)cc2)c2ccc(F)cc2)ncnc1N1CCC(c2nc(C(C)C)no2)CC1 [Example 29, bis(4-fluorophenyl)methanone O-6-(4-(3-isopropyl-1,2,4-oxadiazol-5-yl)piperidin-1-yl)-5-methylpyrimidin-4-yl oxime] | 13.7 | 
CCCCC(=NOc1ncnc(N2CCC(c3nc(C(C)C)no3)CC2)c1C)c1ccccc1 [Example 30, 1-phenylpentan-1-one O-6-(4-(3-isopropyl-1,2,4-oxadiazol-5-yl)piperidin-1-yl)-5-methylpyrimidin-4-yl oxime] | 24.65 | 
CC(C)c1noc(C2CCN(c3ncnc(ON=C(c4ccc(F)cc4)c4ccc(F)cc4)c3[N+](=O)[O-])CC2)n1 [Example 31, bis(4-fluorophenyl)methanone O-6-(4-(3-isopropyl-1,2,4-oxadiazol-5-yl)piperidin-1-yl)-5-nitropyrimidin-4-yl oxime] | 12.18 | 
CC(=NOc1ncnc(N2CCC(c3nc(C(C)C)no3)CC2)c1C)c1ccccc1 [Example 32, Acetophenone O-6-(4-(3-isopropyl-1,2,4-oxadiazol-5-yl)piperidin-1-yl)-5-methylpyrimidin-4-yloxime] | 32.16 | 
CC(=NOc1ncnc(N2CCC(c3nc(C(C)C)no3)CC2)c1[N+](=O)[O-])c1ccccc1 [Example 33, Acetophenone O-6-(4-(3-isopropyl-1,2,4-oxadiazol-5-yl)piperidin-1-yl)-5-nitropyrimidin-4-yl oxime] | 59.34 | 
